{
  "source": "patent US20080254114A1",
  "about": "“Controlled Release Compositions Comprising Heterocyclic Amide Derivative Nanoparticles” (Elan Corporation plc, priority 2005, published 2008)",
  "origin": "cited, not measured here",
  "key": {"[1]": {"conditions": "administration with food; high fat meal and high protein meal, two separate studies"}, "[2]": {"system": "airway responses to antigen", "conditions": "sensitized sheep, inhalational challenge"}, "LTD4": {"system": "LTD4", "conditions": "inhaled LTD4"}, "[3]": {"system": "leukotrienes (LTC4, LTD4 and LTE4)", "conditions": "conducting airway smooth muscle, in vitro"}},
  "data": [
    {"compound": "COc1cc(C(=O)NS(=O)(=O)c2ccccc2C)ccc1Cc1cn(C)c2ccc(NC(=O)OC3CCCC3)cc12", "note": "[Zafirlukast, 4-(5-cyclopentyloxy-carbonylamino-1-methyl-indol-3-ylmethyl)-3-methoxy-N-o-tolylsulfonylbenzamide]", "values": [
      {"measurement": "reduction of mean bioavailability by food", "setting": "[1]", "value": "approximately 40%"},
      {"measurement": "airway responses to antigen (early- and late-phase response, nonspecific hyperresponsiveness)", "setting": "[2]", "value": "suppressed"},
      {"measurement": "solubility in acetone", "setting": "acetone", "value": "freely soluble"},
      {"measurement": "solubility in dimethyl-sulfoxide", "setting": "dimethyl-sulfoxide", "value": "freely soluble"},
      {"measurement": "solubility in methanol", "setting": "methanol", "value": "slightly soluble"},
      {"measurement": "solubility in tetrahydrofuran", "setting": "tetrahydrofuran", "value": "freely soluble"},
      {"measurement": "solubility in water", "setting": "water", "value": "practically insoluble"},
      {"measurement": "increase in bronchial hyperresponsiveness to inhaled histamine", "setting": "bronchoconstriction; following inhaled allergen challenge", "value": "attenuated"},
      {"measurement": "early- and late-phase reaction caused by inhalation of antigens (grass, cat dander, ragweed, mixed antigens)", "setting": "bronchoconstriction; patients with asthma, pretreatment with single doses", "value": "attenuated"},
      {"measurement": "bronchoconstriction caused by sulfur dioxide and cold air", "setting": "bronchoconstriction; patients with asthma, pretreatment with single oral doses", "value": "inhibited"},
      {"measurement": "LTD4-induced influx of eosinophils into animal lungs", "setting": "LTD4", "value": "inhibited"},
      {"measurement": "contractile activity of LTC4, LTD4 and LTE4", "setting": "[3]", "value": "antagonized"}
    ]}
  ]
}
